Data as given in patent US20140005281A1, “Method of Predicting Increased Risk of Suffering Statin-induced Adverse Drug Reactions” (priority 2012, published 2014).

Columns and labels:
[1] = Cholesterol measurement in muscle during statin treatment; assay type: in vivo, mice; settings: after 3 days of statin treatment, 44 mg/kg daily oral gavage
Protocol: 800 μl of each sucrose gradient fraction were subjected to the Bligh-Dyer method for the extraction of lipids in solution. Briefly, 3.75 ml 1:2 (v/v) CHC13: MeOH were added to each sample, followed by 1.25 ml of CHCl3, and 1.25 ml of distilled water; after each addition, samples were vigorously vortexed. The organic phase of each sample was carefully extracted and dried under N2(g). Cholesterol was separated from other lipids on rhodamine 6G stained silica gel G plates with petroleum ether/diethyl ether (98:2, v/v) as the solvent system. The spots corresponding to cholesterol was extracted with petroleum ether:ethyl ether (2:3 v/v) and further assayed using the Wako cholesterol E Kit (Wako Chemicals USA, VA) according to the manufacturer's indications.

αC418W and WT mice = assay: GBHA stain for end-plate (NMJ) calcium overload, tibialis anterior muscle
Description: (§1) Serial cryosections of tibialis anterior muscle from statin-treated αC418W and WT mice were stained for calcium deposits (via GBHA) and also for cholinesterase to localize end-plates. Looking at these in adjacent sections, we were able to measure the percent of calcium-positive NMJs as previously described.

caspase-3 = settings: mouse, in vivo
Protocol: A firefly luciferase-based assay was used to measure activity of caspase 3 (Caspase-Glo® 3/7, Promega). Muscles were homogenized (25 mM HEPES pH 7.5, 0.1% (v/v) Triton X-100, 5 mM MgCl2, 2 mM 1,4-dithiothreitol, 10 mM NH4Cl, 10 mM 3-methyladenine, 74 μM antipain, 0.15 μM aprotinin, 1.3 mM EDTA, 20 μM leupeptin, and 15 μM pepstatin). After homogenization, a 20 μg protein product was added to the luminometer in triplicates for the protease luminescence assay.
as §1

SMILES: CC(C)c1c(C(=O)Nc2ccccc2)c(-c2ccccc2)c(-c2ccc(F)cc2)n1CC[C@@H](O)C[C@@H](O)CC(=O)O [atorvastatin, Atorvastatin calcium]
- total cholesterol levels [1]: significantly lowered
- NMJ calcium overload (αC418W and WT mice; WT mice, statin treatment): did not cause NMJ calcium overload
- NMJ calcium overload (GBHA-positive end-plates), increase over control levels (αC418W and WT mice; αC418W mice, at 36 days of statin treatment): ~3 fold
- caspase-3 activity (caspase-3): did not show an increase
- caspase-3 activity compared with placebo-treated control group (caspase-3): remained unchanged
